{"source": "patent EP0637448A1", "about": "“Combinations of glycinamide or N-acetylglycinamide with analgesic compounds” (ISCOFAR SAS DI PAOLO E. GHIRARDI, priority 1993, dated 1995)", "key": {"EDEMA FROM CARRAGEENIN": {"test_system": "EDEMA FROM CARRAGEENIN", "experiment": "carrageenin edema test", "assay_type": "in vivo, mouse", "conditions": "for ED50: NSAID alone, per os 60 minutes before carrageenin, edema volume after 3 hours, read-out: ED₅₀ ± S.D. (dose reducing edema by 50%)"}, "[1]": {"test_system": "phenylquinone induced writhing", "experiment": "writhing test (phenylquinone-induced abdominal contractions)", "assay_type": "in vivo, mouse", "conditions": "for time of maximum effect after administration: ED50 dose given orally, effect as a function of time; for ED50: Mus musculus, read-out: ED₅₀ ± D.5 (anti-writhing action)", "method": "In order to experimentally test the above analgesic effect, which involves the µ and K type opiate receptors, the writhing test (literally: \"induced abdominal contracture test\") with […] of phenylquinone or paraphenylbenzoquinone (0.02% in 5% ethanol), has been choosed. Since phenylquinone is a photosensitive, said solution was kept dark bottle at 37 °C with continuous stirring. Groups of animals were treated orally with different doses of glycinamide at various time intervals before phenylquinone being administered by intraperitoneal way. For each experimental point 3 groups of 10 animals each were tested. After the phenylquinone administration, the animals were placed in glass cylinders and the abdominal contractions were recorded for 20 minutes starting form the fifth minute following the intraperitoneal administration of phenylquinone. As an average, about 50±15 abdominal contractions were recorded during the surveying time. The choice of phenylquinone as the writhing inductor is justified by the greater qualitative constance and higher number of contractions obtainable when compared with other inductors such as acetylcholine, acetic acid, ethacrynic acid, air, etc. [table]"}, "[2]": {"experiment": "acute oral toxicity (LD50)", "assay_type": "in vivo", "conditions": "in vivo, po; mouse, orally; read-out: LD₅₀"}, "mouse": {"test_system": "mouse", "experiment": "acute oral toxicity (LD50)", "assay_type": "in vivo", "conditions": "orally"}, "[3]": {"conditions": "substance alone, orally, mouse, phenylquinone 2 mg/kg i.p."}}, "note": "Like-named read-outs stand apart in the source and are kept apart here.", "data": [{"molecule": "CC(=O)Oc1ccccc1C(=O)O", "note": "[Acetylsalicylic acid]", "values": [{"measurement": "ED50", "setting": "EDEMA FROM CARRAGEENIN; mouse", "result": "5.1 ± 0.8", "unit": "mg/kg"}]}, {"molecule": "O=C(O)Cc1ccccc1Nc1c(Cl)cccc1Cl", "note": "[Sodium diclofenac]", "values": [{"measurement": "ED50", "setting": "EDEMA FROM CARRAGEENIN; mouse", "result": "10 ± 3.6", "unit": "mg/kg"}, {"measurement": "time of maximum effect after administration", "setting": "[1]; mouse", "result": 45, "unit": "min"}, {"measurement": "ED50", "setting": "[1]; + Glycinamide HCl 15 mg/kg orally 13 minutes before testing, mouse", "result": "1.86 ± 1.15", "unit": "mg/kg"}, {"measurement": "ED50", "setting": "[1]; + Glycinamide HCl 25 mg/kg orally 13 minutes before testing, mouse", "result": "1.12 ± 1.2", "unit": "mg/kg"}, {"measurement": "ED50", "setting": "[1]; + Glycinamide HCl 50 mg/kg orally 13 minutes before testing, mouse", "result": "1.05 ± 1.31", "unit": "mg/kg"}, {"measurement": "ED50", "setting": "[1]; + Glycinamide HCl 75 mg/kg orally 13 minutes before testing, mouse", "result": "1.02 ± 1.26", "unit": "mg/kg"}, {"measurement": "ED50", "setting": "[1]; + Glycinamide HCl 100 mg/kg orally 13 minutes before testing, mouse", "result": "1.28 ± 1.16", "unit": "mg/kg"}, {"measurement": "ED50", "setting": "[1]; [3]", "result": "2.93 ± 1.43", "unit": "mg/kg"}]}, {"molecule": "CC(=O)NCC(N)=O", "note": "[N-acetylglycinamide]", "values": [{"measurement": "peripheral analgesic activity compared with glycinamide", "setting": "[1]; mouse, in vivo", "result": "shared both qualitatively and quantitatively"}, {"measurement": "LD50", "setting": "[2]", "result": "> 2000", "unit": "mg/kg"}]}, {"molecule": "CC(C)Cc1ccc(C(C)C(=O)O)cc1", "note": "(stereo not drawn) [Ibuprofen]", "values": [{"measurement": "ED50", "setting": "EDEMA FROM CARRAGEENIN; mouse", "result": "20 ± 2.4", "unit": "mg/kg"}]}, {"molecule": "COc1ccc2c(c1)c(CC(=O)O)c(C)n2C(=O)c1ccc(Cl)cc1", "note": "[Indomethacin]", "values": [{"measurement": "ED50", "setting": "EDEMA FROM CARRAGEENIN; mouse", "result": "84 ± 12", "unit": "mg/kg"}]}, {"molecule": "NCC(N)=O", "note": "[Glycinamide]", "values": [{"measurement": "enhancement of the effect of sodium diclofenac", "setting": "EDEMA FROM CARRAGEENIN; 50 mg/kg of glycinamide, based on the carrageenin edema test", "result": "at least 2.8 times"}, {"measurement": "anti-edema effect", "setting": "EDEMA FROM CARRAGEENIN; glycinamide alone, 50 mg/kg orally 50 minutes before carrageenin, mouse", "result": "does not develop an anti-edema effect"}, {"measurement": "enhancement of the antiphlogistic and visceral peripheral analgesic effect of sodium diclofenac", "setting": "[1]; 25 mg/kg of glycinamide, based on writhing test", "result": "at least 2.5 times"}, {"measurement": "time of maximum effect after administration", "setting": "[1]; mouse", "result": "about 13 minutes"}, {"measurement": "ED50", "setting": "[1]; [3]", "result": "~82.9", "unit": "mg/kg"}, {"measurement": "reduction (anti-writhing action, peak)", "setting": "[1]; orally administered dose of 200 mg/kg, mouse", "result": 81.3, "unit": "%"}, {"measurement": "LD₅₀", "setting": "mouse", "result": "higher than 2 g/Kg"}]}, {"molecule": "NCC(=O)O", "note": "[glycine]", "values": [{"measurement": "enhancement of the action of peripheral analgesic drugs", "setting": "[1]; test not given", "result": "does not produce"}]}]}
